From patent publication US8546452B2, “S1P3 receptor antagonist” (TOA Eiyo Ltd., priority 2005, dated 2013)

The compounds below were run against hS1P3 (Homo sapiens, UniProt Q99500) (assay: Suppressive effect on S1P-induced increase in [Ca2+]i, CHO-K1 cells expressing S1P3 (Fura 2-AM), IC50). Conditions: S1P solution 50 nmol/L, read-out: hS1P3 suppression IC50.
Format: cell-based

Chain of hS1P3 (Q99500 whole entry): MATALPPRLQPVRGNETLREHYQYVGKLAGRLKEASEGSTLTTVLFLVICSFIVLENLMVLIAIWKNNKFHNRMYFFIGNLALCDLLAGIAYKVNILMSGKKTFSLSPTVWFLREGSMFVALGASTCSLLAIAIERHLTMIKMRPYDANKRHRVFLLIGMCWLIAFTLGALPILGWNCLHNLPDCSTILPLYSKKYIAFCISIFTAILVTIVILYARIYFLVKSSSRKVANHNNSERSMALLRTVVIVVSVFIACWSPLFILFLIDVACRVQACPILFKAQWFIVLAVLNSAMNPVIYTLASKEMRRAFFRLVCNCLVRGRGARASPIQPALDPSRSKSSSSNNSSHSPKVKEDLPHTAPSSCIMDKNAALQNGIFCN

SMILES	IC50
CC(=O)c1ccc(NN=C(Nc2cccc(F)c2)C(=O)C(C)(C)C)cc1 [Compound 91, 1-(4-acetylphenylhydrazono)-1-(3-fluorophenylamino)-3,3-dimethyl-2-butanone]	8.9 µM
O=C(C(=NNc1ccc(Cl)cc1)Nc1cccc(C(F)(F)F)c1)c1ccco1 [Compound 120, 1-(4-chlorophenylhydrazono)-1-(3-trifluoromethylphenylamino)-2-(2-furyl)-2-ethanone]	5.45 µM
COc1ccc(NC(=NNc2ccc(C#N)cc2)C(=O)C(C)(C)C)cc1 [Compound 87, 1-(4-cyanophenylhydrazono)-1-(4-methoxyphenylamino)-3,3-dimethyl-2-butanone]	14 µM
C#Cc1ccc(NC(=NNc2ccc(C(C)=O)cc2)C(=O)C(C)(C)C)cc1 [Compound 95, 1-(4-acetylphenylhydrazono)-1-(4-ethynylphenylamino)-3,3-dimethyl-2-butanone]	18.6 µM
CC(C)(C)C(=O)C(=NNc1ccc(F)cc1)Nc1ccc(C(F)(F)F)cc1 [Compound 58, 1-(4-fluorophenylhydrazono)-1-(4-trifluoromethylphenylamino)-3,3-dimethyl-2-butanone]	5.72 µM
O=C(C(=NNc1ccc(Cl)cc1)Nc1ccc(Cl)cc1)c1cccs1 [Compound 125, 1-(4-chlorophenylamino)-1-(4-chlorophenylhydrazono)-2-(2-thienyl)-2-ethanone]	8.29 µM
COc1ccc(NN=C(Nc2ccc(Cl)cc2)C(=O)C(C)(C)C)cc1 [Compound 90, 1-(4-chlorophenylamino)-1-(4-methoxyphenylhydrazono)-3,3-dimethyl-2-butanone]	6.58 µM
C#Cc1ccc(NC(=NNc2ccc(C#N)cc2)C(=O)C(C)(C)C)cc1 [Compound 86, 1-(4-cyanophenylhydrazono)-1-(4-ethynylphenylamino)-3,3-dimethyl-2-butanone]	6.64 µM
CC(C)(C)NC(=O)C(=NNc1ccc(Cl)cc1)Nc1ccc(Cl)c(Cl)c1 [Compound 31, N-tert-butyl-[1-(4-chlorophenylhydrazono)-1-(3,4-dichlorophenylamino)]acetamide]	10.5 µM
CC(C)(C)C(=O)C(=NNc1ccc(Cl)cc1)Nc1cc(Cl)nc(Cl)c1 [Compound 35, 1-(4-chlorophenylhydrazono)-1-(2,6-dichloropyridin-4-ylamino)-3,3-dimethyl-2-butanone]	7.49 µM
CC(C)(C)NC(=O)C(=NNc1ccc(Cl)cc1)Nc1cc(Cl)cc(Cl)c1 [Compound 30, N-tert-butyl-[1-(4-chlorophenylhydrazono)-1-(3,5-dichlorophenylamino)]acetamide]	12.3 µM
O=C(C(=NNc1ccc(Cl)cc1)Nc1cccc(F)c1)c1ccccc1 [Compound 1, 2-(4-Chlorophenylhydrazono)-2-(3-fluorophenylamino)acetophenone]	6.72 µM
CC(C)(C)C(=O)C(=NNc1ccc(C(F)(F)F)cc1)Nc1ccc(Cl)cc1 [Compound 68, 1-(4-chlorophenylamino)-1-(4-trifluoromethylphenylhydrazono)-3,3-dimethyl-2-butanone]	9.09 µM

The remaining compounds from weak to strong by IC50, led by results:

IC50	SMILES
5.34 µM	O=C(C(=NNc1ccc(Cl)cc1)Nc1cccc(Cl)c1)c1ccccc1 [Compound 11, 2-(3-chlorophenylamino)-2-(4-chlorophenylhydrazono)acetophenone]
5.07 µM	CC(C)(C)C(=O)C(=NNc1ccc(C#N)cc1)Nc1ccc(F)cc1 [Compound 82, 1-(4-cyanophenylhydrazono)-1-(4-fluorophenylamino)-3,3-dimethyl-2-butanone]
3.94 µM	CCOC(=O)C(=NNc1ccc(Cl)cc1)Nc1cccc(C(F)(F)F)c1 [Compound 16, ethyl 1-(4-chlorophenylhydrazono)-1-(3-trifluoromethylphenylamino)acetate]
3.64 µM	CC(C)(C)C(=O)C(=NNc1ccc(C(F)(F)F)cc1)Nc1ccc(Cl)c(Cl)c1 [Compound 72, 1-(3,4-dichlorophenylamino)-1-(4-trifluoromethylphenylhydrazono)-3,3-dimethyl-2-butanone]
2.81 µM	O=C(C(=NNc1ccc(Cl)cc1)Nc1cc(Cl)nc(Cl)c1)c1ccccc1 [Compound 4, 2-(4-chlorophenylhydrazono)-2-(2,6-dichloropyridin-4-ylamino)acetophenone]
2.53 µM	CC(C)(C)C(=O)C(=NNc1ccc(Cl)cc1)Nc1cccc(C(F)(F)F)c1 [Compound 36, 1-(4-chlorophenylhydrazono)-1-(3-trifluoromethylphenylamino)-3,3-dimethyl-2-butanone]
2.44 µM	CC(C)(C)C(=O)C(=NNc1ccccc1)Nc1cc(Cl)cc(Cl)c1 [Compound 51, 1-(3,5-dichlorophenylamino)-1-(phenylhydrazono)-3,3-dimethyl-2-butanone]
2.16 µM	CC(C)(C)C(=O)C(=NNc1ccc(F)cc1)Nc1ccc(Br)cc1 [Compound 56, 1-(4-bromophenylamino)-1-(4-fluorophenylhydrazono)-3,3-dimethyl-2-butanone]
2.07 µM	O=C(C(=NNc1ccc(Cl)cc1)Nc1ccc(Cl)cc1)c1ccco1 [Compound 116, 1-(4-chlorophenylamino)-1-(4-chlorophenylhydrazono)-2-(2-furyl)-2-ethanone]
1.99 µM	CCCCC(=O)C(=NNc1ccc(Cl)cc1)Nc1cccc(Cl)c1 [Compound 141, 1-(3-chlorophenylamino)-1-(4-chlorophenylhydrazono)-2-hexanone]
1.02 µM	CC(C)(C)C(=O)C(=NNc1ccc(F)cc1)Nc1ccc(Cl)c(Cl)c1 [Compound 60, 1-(3,4-dichlorophenylamino)-1-(4-fluorophenylhydrazono)-3,3-dimethyl-2-butanone]
0.97 µM	CCC(CC)C(=O)C(=NNc1ccc(Cl)cc1)Nc1ccc(Cl)cc1 [Compound 110, 1-(4-chlorophenylamino)-1-(4-chlorophenylhydrazono)-3-ethyl-2-pentanone]
0.9 µM	CC(C)(C)C(=O)C(=NNc1ccc(Cl)cc1)Nc1ccc(Cl)c(F)c1 [Compound 135, 1-(4-chloro-3-fluorophenylamino)-1-(4-chlorophenylhydrazono)-3,3-dimethyl-2-butanone]
0.69 µM	C#Cc1cccc(NC(=NNc2ccc(Cl)c(Cl)c2)C(=O)C(C)(C)C)c1 [Compound 107, 1-(3,4-dichlorophenylhydrazono)-1-(3-ethynylphenylamino)-3,3-dimethyl-2-butanone]
0.66 µM	C#Cc1ccc(NN=C(Nc2ccc(Cl)cc2)C(=O)C(C)(C)C)cc1 [Compound 106, 1-(4-chlorophenylamino)-1-(4-ethynylphenylhydrazono)-3,3-dimethyl-2-butanone]
0.49 µM	CC(C)(C)C(=O)C(=NNc1ccc(Cl)cc1)Nc1cc(Cl)cc(Cl)c1 [Compound 37, 1-(4-chlorophenylhydrazono)-1-(3,5-dichlorophenylamino)-3,3-dimethyl-2-butanone]
0.34 µM	CC(C)(C)C(=O)C(=NNc1ccc(Cl)c(Cl)c1)Nc1cccc(Cl)c1 [Compound 123, 1-(3-chlorophenylamino)-1-(3,4-dichlorophenylhydrazono)-3,3-dimethyl-2-butanone]
0.31 µM	CC(C)(C)C(=O)C(=NNc1ccc(Cl)cc1)Nc1ccc(Cl)c(Cl)c1 [Compound 38, 1-(4-chlorophenylhydrazono)-1-(3,4-dichlorophenylamino)-3,3-dimethyl-2-butanone]
